Laboratory results published in patent US8415128B2, “Mitigation of photodamage in analytical reactions” (Pacific Biosciences of California, Inc., priority 2005, dated 2013).

How the values were obtained:
Type in all cases: biochemical
[1] = system: DNA polymerase immobilized within zero mode waveguides; experiment: DNA synthesis in zero mode waveguide arrays with and without laser illumination; settings: 160 mM DTT, without MEA; ZMW arrays
Description: A similar set of experiments to those described above were performed using DNA polymerase immobilized within zero mode waveguides in an array of waveguides. As above, the first experiment was designed to identify whether laser illumination caused damage to immobilized polymerase enzymes on nanostructured surfaces. The surfaces included ZMW arrays in which the polymerase enzyme was adsorbed to the surface. […] The illumination profile is shown in the first panel (far left), while the image of the stained DNA product in the illuminated synthesis is shown in the adjacent panel (middle left). […] The middle right and far right panels show non-illuminated waveguide arrays, and indicate substantially more DNA is present than in the illuminated sample, again showing photo-induced damage to the polymerase activity in the waveguide arrays. FIG. 4B illustrates a first set of waveguide arrays in which similar synthesis reactions were carried out in the presence of no additional mitigation agents (e.g., only 10 mM βME), or in the presence of 5 mM DTT and 100 mM MEA.

[2] = system: modified φ29 DNA polymerase; experiment: Bulk DNA synthesis under laser illumination, agarose gel image scanning; settings: dye labeled tetraphosphates (reaction condition 3); 5 minute illumination; 5 mM DTT or 100 mM MEA
Description: In a first assay, synthesis reaction mixtures contained a modified φ29 DNA polymerase, 300 nM DNA template, three native nucleoside triphosphates (at 10 μM each) and a fluorescent dye labeled nucleoside polyphosphate (at 10 μM) in synthesis buffer (50 mM Tris-HCl, pH 7.5, 75 mM KCL, 20 mM (NH4)2SO4, 10 mM BME, 0.7 mM MnCl2). Each of the reactions were carried out at room temperature (22° C.) for the desired illumination period, ranging from 1 minute to one hour.
The experiment included two sets each of three different reaction mixtures: (1) a synthesis reaction using only native, e.g., unlabeled nucleoside triphosphates; (2) a synthesis reaction including two native nucleoside triphosphates, an Alexa 488 labeled dCTP analog, and an Alexa 568 labeled dTTP; and (3) a synthesis reaction including two native nucleoside triphosphates, an Alexa 488 labeled dC4P analog (tetraphosphate), and an Alexa 568 labeled dT4P. Each different synthesis reaction conditions included either no illumination or laser illumination during synthesis for five minutes with wavelengths of 488, 568 and 647 nm, followed by 60 minutes of nonilluminated synthesis. […]
The gel was subjected to image scanning (Molecular Dynamics Typhoon 9400, with Typhoon scanner Control Version 2; gel image quantified with Molecular Dynamiics ImageQuant ver. 5.2). […]

DNA polymerase enzymes = experiment: Chromatide incorporation activity after photodamage step on planar glass substrates; settings: relative to a non-illuminated control region; Laser Power 2.5 μW/μm^2; baseline 10 mM MEA-Ac, 0.1×GO-Cat, 25 mM Tris-Ascorbate; Trolox at 1 mM, PPD at 100 mM
Description: In the experiment, DNA polymerase enzymes were immobilized on planar glass substrates (fused silica microscope slides) and subjected to reaction conditions under which DNA synthesis was taking place. Each reaction mixture also included a baseline level of photodamage mitigating agents (10 mM MEA-Ac, 0.1×GO-Cat, 25 mM Tris-Ascorbate). The reactions were carried out under laser illumination of varying power.
Following the photodamage step, all the solution was washed from the chip and replaced with ordinary buffers and dNTPs. In addition, a base labeled fluorescent nucleotide (chromatide) was added to provide a fluorescent signal of incorporation activity following the photodamage step, above. […] The activity of the enzyme was measured based upon the relative fluorescence of the DNA on the slide.
Table 1, below provides the percent chromatide relative to a non-illuminated control region, for each different additive at the listed laser power.

Row | SMILES | amount of damaged polymerase activity [1] | ratio of product when exposed to laser illumination to that in the absence of such illumination [2] | % Chromatide activity (DNA polymerase enzymes)
1 | O[C@H](CS)[C@H](O)CS (racemic) [DTT, dithiothreitol] | improvements | 0.59 | 
2 | Cc1cc(C(C)(C)C)c(O)c(C(C)(C)C)c1 [BHT, butylated hydroxytoluene] |  |  | 22%
3 | C1CN2CCN1CC2 [DABCO, diazobicyclooctane] |  |  | 20%
4 | NCCS [MEA, mercaptoethylamine] |  | 1.04 | 
5 | Nc1ccc(N)cc1 [PPD, p-phenylenediamene] |  |  | 58%
6 | Cc1c(C)c2c(c(C)c1O)CCC(C)(C(=O)O)O2 (stereo not shown) [Trolox] |  |  | 41%
